Data taken from patent US20020072474A1, “Herbicidal compositions” (priority 2000, published 2002).

Legend:
[1] = tested on: AVEFA (Avena fatua); experiment: Activity against grass weeds, post-emergence spray in pots in controlled-environment cabinet, visual scoring; format: in vivo; conditions: mesosulfuron-methyl 60 g a.i./ha (Silwet L77 50 g a.i./ha, sodium lactate 150 g a.i./ha where present); sprayed four weeks after sowing, water 300 l/ha; visual scoring 14 days after application, 0% = no damage to 100% = all plants dead
Protocol: (§1) The individual components herbicide, surfactant and humectant as stated in Table 1 with regard to the application rates were added with stirring to a water application rate of 300 I/ha so that a homogeneous spray mixture was formed. The herbicide employed was mesosulfuron-methyl as 20 percent water-dispersible powder. The surfactant used was Silwet®L77 (Wacker) and the humectant used was sodium lactate as 50 percent aqueous solution (Merck KGaA, Darmstadt). Seeds of the harmful plants AVEFA and LOLMU were sown in a sandy loam soil in round pots type 13 in a controlled-environment cabinet and watered slightly. During the entire experiment period, the substrate only received minimal irrigation. A daytime temperature of 18° C. and a night time temperature of 16° C. were adhered to, a uniform day length of 16 hours being achieved by additional illumination with sodium vapor lamps (approx. 7000 lux). The relative atmospheric humidity was 50%. Four weeks after sowing, the plants were treated on a laboratory spray conveyor with the spray mixture which had been prepared in accordance with Example 1. The water application rate for the spray application of the preparations was 300 I/ha. After the treatment, the plants were returned to the controlled-environment cabinet. […]

[2] = tested on: LOLMU (Lolium multiflorum); experiment: as above; format: in vivo; conditions: mesosulfuron-methyl 60 g a.i./ha (Silwet L77 50 g a.i./ha, sodium lactate 150 g a.i./ha where present); sprayed four weeks after sowing, water 300 l/ha; visual scoring 14 days after application, 0% = no damage to 100% = all plants dead
Protocol: as §1

## COC(=O)c1ccc(CNS(C)(=O)=O)cc1S(=O)(=O)NC(=O)Nc1nc(OC)cc(OC)n1 [Mesosulfuron, mesosulfuron-methyl]
[1]
  Damage in % AVEFA: 22%
[2]
  Damage in % LOLMU: 18%
